Test results from ChEMBL document CHEMBL1201862, “PubChem BioAssay data set” (2004).
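A five-concentration, 48-hour dose response in 96-well plates underlies each endpoint, interpolated linearly between surrounding concentrations. GI50: concentration for 50% inhibition of growth.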 Active and inactive are the calls of the source. Rule as the data show it: active = GI50 up to about 1.1 µM and inactive = higher.

Legend:
Assay in all cases: NCI-60 cell line screen, 48 h
[1] = system: HT-29
[2] = system: CCRF-CEM
[3] = system: SF-295
[4] = system: HOP-92
[5] = system: EKVX
[6] = system: NCI-H23
[7] = system: HL-60
[8] = system: SR
[9] = system: HOP-62
[10] = system: SNB-75
[11] = system: MCF7
[12] = system: Malme-3M
[13] = system: T47D
[14] = system: PC-3
[15] = system: SNB-19
[16] = system: UO-31
[17] = system: MOLT-4
[18] = system: SF-268
[19] = system: SK-MEL-28
[20] = system: NCI-H226
[21] = system: OVCAR-3
[22] = system: K562
[23] = system: NCI-H460
[24] = system: OVCAR-8
[25] = system: 786-0
[26] = system: MDA-MB-435
[27] = system: BT-549
[28] = system: NCI/ADR-RES
[29] = system: M14
[30] = system: KM12
[31] = system: Hs-578T
[32] = system: COLO 205
[33] = system: SW-620
[34] = system: A549
[35] = system: U-251
[36] = system: SK-MEL-2
[37] = system: CAKI-1
[38] = system: HCT-15
[39] = system: UACC-257
[40] = system: LOX IMVI
[41] = system: UACC-62
[42] = system: SK-MEL-5
[43] = system: OVCAR-5
[44] = system: RPMI-8226
[45] = system: NCI-H522
[46] = system: TK-10
[47] = system: ACHN
[48] = system: SK-OV-3
[49] = system: OVCAR-4
[50] = system: IGROV-1
[51] = system: SN12C
[52] = system: HCC 2998
[53] = system: DU-145
[54] = system: MDA-N
[55] = system: MDA-MB-231
[56] = system: HCT-116
[57] = system: SF-539
[58] = system: RXF 393
[59] = system: A498

Measured: GI50

O=C(NCP(=O)(Oc1ccccc1)Oc1ccccc1)OCc1ccccc1
> 100 µM: [38]
inactive: [1] > 100 µM | [2] > 100 µM | [3] 42.2 µM | [4] 38.7 µM | [5] > 100 µM | [6] > 100 µM | [7] > 100 µM | [8] > 100 µM | [9] 39.8 µM | [10] 32 µM | [11] > 100 µM | [12] 77.6 µM | [13] > 100 µM | [14] 43.9 µM | [15] > 100 µM | [16] > 100 µM | [17] > 100 µM | [18] > 100 µM | [19] > 100 µM | [20] > 100 µM | [21] 55.1 µM | [22] > 100 µM | [23] > 100 µM | [24] > 100 µM | [25] 53.2 µM | [26] > 100 µM | [27] > 100 µM | [28] > 100 µM | [29] > 100 µM | [30] > 100 µM | [31] 40.7 µM | [32] > 100 µM | [33] > 100 µM | [34] 70.8 µM | [35] > 100 µM | [36] > 100 µM | [37] > 100 µM | [39] > 100 µM | [40] > 100 µM | [41] 62.8 µM | [42] > 100 µM | [43] > 100 µM | [44] > 100 µM | [45] 83.6 µM | [46] > 100 µM | [47] 80.5 µM | [48] 33.1 µM | [49] 45.3 µM | [50] > 100 µM | [51] > 100 µM

COc1ccc(N(C(=O)Nc2ccc(Cl)c(Cl)c2)C2c3cccn3C(=O)N2c2ccc(Cl)c(Cl)c2)cc1 (stereo not given)
active: [44] 0.0724 µM
inactive: [1] > 100 µM | [2] 36 µM | [3] 18.3 µM | [4] 51.3 µM | [5] 42.3 µM | [6] 92 µM | [7] 25.1 µM | [52] 56.5 µM | [8] 12.4 µM | [11] 43.3 µM | [12] > 100 µM | [14] 60.4 µM | [15] > 100 µM | [16] > 100 µM | [17] 1.54 µM | [18] 8.43 µM | [19] > 100 µM | [20] > 100 µM | [22] 13.8 µM | [23] 24.9 µM | [24] > 100 µM | [25] > 100 µM | [26] 28.6 µM | [27] > 100 µM | [28] > 100 µM | [29] 19.1 µM | [30] 30.5 µM | [53] > 100 µM | [31] > 100 µM | [32] > 100 µM | [54] 87.7 µM | [33] > 100 µM | [34] 80.5 µM | [35] > 100 µM | [36] > 100 µM | [37] 26.9 µM | [55] 47.8 µM | [39] > 100 µM | [56] 17.3 µM | [40] 15.8 µM | [41] 41.9 µM | [42] 70.5 µM | [57] > 100 µM | [43] 16.4 µM | [58] > 100 µM | [46] > 100 µM | [47] > 100 µM | [49] 30.1 µM | [50] > 100 µM | [59] 27.7 µM | [51] > 100 µM
94 µM: [38]

O=C(NCCC1CNc2ccccc21)OCc1ccccc1 (stereo not given)
> 100 µM: [38]
inactive: [1] > 100 µM | [2] 87.7 µM | [3] > 100 µM | [4] > 100 µM | [5] > 100 µM | [6] > 100 µM | [52] > 100 µM | [8] > 100 µM | [9] > 100 µM | [11] > 100 µM | [12] > 100 µM | [14] > 100 µM | [15] > 100 µM | [16] > 100 µM | [17] 71.4 µM | [18] > 100 µM | [19] > 100 µM | [21] > 100 µM | [22] > 100 µM | [23] > 100 µM | [24] > 100 µM | [25] > 100 µM | [26] > 100 µM | [27] > 100 µM | [28] > 100 µM | [29] > 100 µM | [30] > 100 µM | [53] > 100 µM | [31] > 100 µM | [32] > 100 µM | [54] > 100 µM | [33] > 100 µM | [34] > 100 µM | [35] > 100 µM | [36] > 100 µM | [37] > 100 µM | [55] > 100 µM | [39] > 100 µM | [56] > 100 µM | [41] > 100 µM | [42] > 100 µM | [43] > 100 µM | [58] > 100 µM | [44] > 100 µM | [45] > 100 µM | [47] > 100 µM | [48] > 100 µM | [49] > 100 µM | [50] > 100 µM | [59] > 100 µM
